Reference: patent publication US11331369B2, “Endoparasitic depsipeptides” (Zoetis Services LLC, priority 2017, dated 2022)

What was measured:
[1] = tested on: microfilariae of Dirofilaria immitis; experiment: Dirofilaria immitis, Microfilaria (DiMF) In vitro Assay; format: cell-based; details: 72 h, read-out: DiMF Minimum Effective Dose (MED), approximately 72 hours incubation, microfilariae assessed for survival or paralysis
[2] = tested on: 4th stage larvae (L4) of Dirofilaria immitis; experiment: Dirofilaria immitis, L4 Stage (DiL4) In Vitro Assay; format: cell-based; details: Dirofilaria immitis, 72 h, read-out: DiL4 Minimum Effective Dose (MED), approximately 72 hours incubation; L4 larvae assessed for survival or paralysis

SMILES | minimal effective concentration [1] | minimal effective concentration [2]
CC(C)C[C@H]1C(=O)O[C@H](Cc2ccc(Cn3nc(C#N)cc3C#N)cc2)C(=O)N(C)[C@@H](CC(C)C)C(=O)O[C@H](C)C(=O)N(C)[C@@H](CC(C)C)C(=O)O[C@H](Cc2ccccc2)C(=O)N(C)[C@@H](CC(C)C)C(=O)O[C@H](C)C(=O)N1C [Example 2-62, 1-(4-(((2R,5S,8R,11S,14R,17S,20R,23S)-14-benzyl-5,11,17,23-tetraisobutyl-4,8,10,16,20,22-hexamethyl-3,6,9,12,15,18,21,24-octaoxo-1,7,13,19-tetraoxa-4,10,16,22-tetraazacyclotetracosan-2-yl)methyl)benzyl)-1H-pyrazole-3,5-dicarbonitrile] | 0.001 to 0.01 µM | 0.0001 to 0.001 µM
CC(C)C[C@H]1C(=O)O[C@H](Cc2ccc(Cn3cc(C#Cc4ccccc4)cn3)cc2)C(=O)N(C)[C@@H](CC(C)C)C(=O)O[C@H](C)C(=O)N(C)[C@@H](CC(C)C)C(=O)O[C@H](Cc2ccccc2)C(=O)N(C)[C@@H](CC(C)C)C(=O)O[C@H](C)C(=O)N1C [Example 2-64, (3S,6R,9S,12R,15S,18R,21S,24R)-6-benzyl-3,9,15,21-tetraisobutyl-4,10,12,16,22,24-hexamethyl-18-(4-((4-(phenylethynyl)-1H-pyrazol-1-yl)methyl)benzyl)-1,7,13,19-tetraoxa-4,10,16,22-tetraazacyclotetracosan-2,5,8,11,14,17,20,23-octaone] | 0.01 to 0.1 µM | 0.0001 to 0.001 µM
CC(C)C#Cc1cnn(Cc2ccc(C[C@H]3OC(=O)[C@H](CC(C)C)N(C)C(=O)[C@@H](C)OC(=O)[C@H](CC(C)C)N(C)C(=O)[C@@H](Cc4ccc(Cn5cc(C#CC(C)C)cn5)cc4)OC(=O)[C@H](CC(C)C)N(C)C(=O)[C@@H](C)OC(=O)[C@H](CC(C)C)N(C)C3=O)cc2)c1 [Example 1b-112, (3S,6R,9S,12R,15S,18R,21S,24R)-3,9,15,21-tetraisobutyl-4,6,10,16,18,22-hexamethyl-12,24-bis(4-((4-(3-methylbut-1-yn-1-yl)-1H-pyrazol-1-yl)methyl)benzyl)-1,7,13,19-tetraoxa-4,10,16,22-tetraazacyclotetracosan-2,5,8,11,14,17,20,23-octaone] | 0.01 to 0.1 µM | 0.0001 to 0.001 µM
COc1ccc(-c2ccnn2Cc2ccc(C[C@H]3OC(=O)[C@H](CC(C)C)N(C)C(=O)[C@@H](C)OC(=O)[C@H](CC(C)C)N(C)C(=O)[C@@H](Cc4ccc(Cn5nccc5-c5ccc(OC)cc5)cc4)OC(=O)[C@H](CC(C)C)N(C)C(=O)[C@@H](C)OC(=O)[C@H](CC(C)C)N(C)C3=O)cc2)cc1 [Example 1b-149, (3S,6R,9S,12R,15S,18R,21S,24R)-3,9,15,21-tetraisobutyl-6,18-bis(4-((5-(4-methoxyphenyl)-1H-pyrazol-1-yl)methyl)benzyl)-4,10,12,16,22,24-hexamethyl-1,7,13,19-tetraoxa-4,10,16,22-tetraazacyclotetracosan-2,5,8,11,14,17,20,23-octaone] | 0.01 to 0.1 µM | 0.001 to 0.01 µM
CC(C)C[C@H]1C(=O)O[C@H](Cc2ccc(Cn3nc(C(F)F)cc3C3CC3)cc2)C(=O)N(C)[C@@H](CC(C)C)C(=O)O[C@H](C)C(=O)N(C)[C@@H](CC(C)C)C(=O)O[C@H](Cc2ccc(Cn3nc(C#N)cc3C#N)cc2)C(=O)N(C)[C@@H](CC(C)C)C(=O)O[C@H](C)C(=O)N1C [Example 1a-7, 1-(4-(((2R,5S,8R,11 S,14R,17S,20R,23S)-14-(4-((5-cyclopropyl-3-(difluoromethyl)-1H-pyrazol-1-yl)methyl)benzyl)-5,11,17,23-tetraisobutyl-4,8,10,16,20,22-hexamethyl-3,6,9,12,15,18,21,24-octaoxo-1,7,13,19-tetraoxa-4,10,16,22-tetraazacyclotetracosan-2-yl)methyl)benzyl)-1H-pyrazole-3,5-dicarbonitrile] | 0.001 to 0.01 µM | ≤ 0.0001 µM
CC(C)C[C@H]1C(=O)O[C@H](Cc2ccc(Cn3ccc(C#N)c3)cc2)C(=O)N(C)[C@@H](CC(C)C)C(=O)O[C@H](C)C(=O)N(C)[C@@H](CC(C)C)C(=O)O[C@H](Cc2ccc(Cn3ccc(C#N)c3)cc2)C(=O)N(C)[C@@H](CC(C)C)C(=O)O[C@H](C)C(=O)N1C [Example 9-25, 1-[[4-[[(2R,5S,8R,11S,14R,17S,20R,23S)-14-[[4-[(3-cyanopyrrol-1-yl)methyl]phenyl]methyl]-5,11,17,23-tetraisobutyl-4,8,10,16,20,22-hexamethyl-3,6,9,12,15,18,21,24-octaoxo-1,7,13,19-tetraoxa-4,10,16,22-tetrazacyclotetracos-2-yl]methyl]phenyl]methyl]pyrrole-3-carbonitrile] | 0.001 to 0.01 µM | 0.0001 to 0.001 µM
CC(C)C[C@H]1C(=O)O[C@H](Cc2ccc(Cn3cc(COC(C)C)cn3)cc2)C(=O)N(C)[C@@H](CC(C)C)C(=O)O[C@H](C)C(=O)N(C)[C@@H](CC(C)C)C(=O)O[C@H](Cc2ccc(Cn3cc(COC(C)C)cn3)cc2)C(=O)N(C)[C@@H](CC(C)C)C(=O)O[C@H](C)C(=O)N1C [Example 1b-184, (3S,6R,9S,12R,15S,18R,21S,24R)-3,9,15,21-tetraisobutyl-6,18-bis(4-((4-(isopropoxymethyl)-1H-pyrazol-1-yl)methyl)benzyl)-4,10,12,16,22,24-hexamethyl-1,7,13,19-tetraoxa-4,10,16,22-tetraazacyclotetracosan-2,5,8,11,14,17,20,23-octaone] | 0.001 to 0.01 µM | 0.001 to 0.01 µM
COCc1cnn(Cc2ccc(C[C@H]3OC(=O)[C@H](CC(C)C)N(C)C(=O)[C@@H](C)OC(=O)[C@H](CC(C)C)N(C)C(=O)[C@@H](Cc4ccc(Cn5cc(COC)cn5)cc4)OC(=O)[C@H](CC(C)C)N(C)C(=O)[C@@H](C)OC(=O)[C@H](CC(C)C)N(C)C3=O)cc2)c1 [Example 1b-155, (3S,6R,9S,12R,15S,18R,21S,24R)-3,9,15,21-tetraisobutyl-6,18-bis(4-((4-(methoxymethyl)-1H-pyrazol-1-yl)methyl)benzyl)-4,10,12,16,22,24-hexamethyl-1,7,13,19-tetraoxa-4,10,16,22-tetraazacyclotetracosan-2,5,8,11,14,17,20,23-octaone] | 0.001 to 0.01 µM | 0.001 to 0.01 µM
CC(C)C[C@H]1C(=O)O[C@H](Cc2ccc(CN3C(=O)CSc4cccnc43)cc2)C(=O)N(C)[C@@H](CC(C)C)C(=O)O[C@H](C)C(=O)N(C)[C@@H](CC(C)C)C(=O)O[C@H](Cc2ccc(CN3C(=O)CSc4cccnc43)cc2)C(=O)N(C)[C@@H](CC(C)C)C(=O)O[C@H](C)C(=O)N1C [Example 9-61, (3S,6R,9S,12R,15S,18R,21S,24R)-3,9,15,21-tetraisobutyl-4,6,10,16,18,22-hexamethyl-12,24-bis[[4-[(3-oxopyrido[3,2-b][1,4]thiazin-4-yl)methyl]phenyl]methyl]-1,7,13,19-tetraoxa-4,10,16,22-tetrazacyclotetracosane-2,5,8,11,14,17,20,23-octaone] | 0.01 to 0.1 µM | 0.001 to 0.01 µM
CC(C)C[C@H]1C(=O)O[C@H](Cc2ccc(Cn3cc(C#N)cn3)cc2)C(=O)N(C)[C@@H](CC(C)C)C(=O)O[C@H](C)C(=O)N(C)[C@@H](CC(C)C)C(=O)O[C@H](Cc2ccccc2)C(=O)N(C)[C@@H](CC(C)C)C(=O)O[C@H](C)C(=O)N1C [Example 2-10, 1-(4-(((2R,5S,8R,11S,14R,17S,20R,23S)-14-benzyl-5,11,17,23-tetraisobutyl-4,8,10,16,20,22-hexamethyl-3,6,9,12,15,18,21,24-octaoxo-1,7,13,19-tetraoxa-4,10,16,22-tetraazacyclotetracosan-2-yl)methyl)benzyl)-1H-pyrazole-4-carbonitrile] | 0.001 to 0.01 µM | 0.0001 to 0.001 µM
CC(C)C[C@H]1C(=O)O[C@H](Cc2ccc(Cn3cc(OCC(F)(F)F)cn3)cc2)C(=O)N(C)[C@@H](CC(C)C)C(=O)O[C@H](C)C(=O)N(C)[C@@H](CC(C)C)C(=O)O[C@H](Cc2ccc(Cn3cc(OCC(F)(F)F)cn3)cc2)C(=O)N(C)[C@@H](CC(C)C)C(=O)O[C@H](C)C(=O)N1C [Example 1b-150, (3S,6R,9S,12R,15S,18R,21S,24R)-3,9,15,21-tetraisobutyl-4,6,10,16,18,22-hexamethyl-12,24-bis(4-((4-(2,2,2-trifluoroethoxy)-1H-pyrazol-1-yl)methyl)benzyl)-1,7,13,19-tetraoxa-4,10,16,22-tetraazacyclotetracosan-2,5,8,11,14,17,20,23-octaone] | 0.001 to 0.01 µM | 0.0001 to 0.001 µM
CC(C)C[C@H]1C(=O)O[C@H](Cc2ccc(Cn3nccc3-c3ccccc3)cc2)C(=O)N(C)[C@@H](CC(C)C)C(=O)O[C@H](C)C(=O)N(C)[C@@H](CC(C)C)C(=O)O[C@H](Cc2ccc(Cn3nc(C#N)cc3C#N)cc2)C(=O)N(C)[C@@H](CC(C)C)C(=O)O[C@H](C)C(=O)N1C [Example 1a-12, 1-(4-(((2R,5S,8R,11S,14R,17S,20R,23S)-5,11,17,23-tetraisobutyl-4,8,10,16,20,22-hexamethyl-3,6,9,12,15,18,21,24-octaoxo-14-(4-((5-phenyl-1H-pyrazol-1-yl)methyl)benzyl)-1,7,13,19-tetraoxa-4,10,16,22-tetraazacyclotetracosan-2-yl)methyl)benzyl)-1H-pyrazole-3,5-dicarbonitrile] | 0.01 to 0.1 µM | 0.0001 to 0.001 µM
CC(C)C[C@H]1C(=O)O[C@H](Cc2cccc(Cn3cc(Br)cn3)c2)C(=O)N(C)[C@@H](CC(C)C)C(=O)O[C@H](C)C(=O)N(C)[C@@H](CC(C)C)C(=O)O[C@H](Cc2cccc(Cn3cc(Br)cn3)c2)C(=O)N(C)[C@@H](CC(C)C)C(=O)O[C@H](C)C(=O)N1C [Example 4-2, (3S,6R,9S,12R,15S,18R,21S,24R)-6,18-bis(3-((4-bromo-1H-pyrazol-1-yl)methyl)benzyl)-3,9,15,21-tetraisobutyl-4,10,12,16,22,24-hexamethyl-1,7,13,19-tetraoxa-4,10,16,22-tetraazacyclotetracosan-2,5,8,11,14,17,20,23-octaone] | 0.001 to 0.01 µM | 0.0001 to 0.001 µM
